From article PMC9401491, “The Novel Nucleoside Analogue ProTide NUC-7738 Overcomes Cancer Resistance Mechanisms In Vitro and in a First-In-Human Phase I Clinical Trial” (Clinical Cancer Research, 2021)

System: Gastric or cervical cancer cells
Assay: Apoptosis by cleaved PARP Western blot
Format: cell-based
Details: 50 and 100 μmol/L, 24 hours
Description: Cells (10^4) were seeded into 96-well plates and then treated with NUC-7738 (lot 5132/E00393/119) or 3′-dA (cordycepin, catalog no. C3394, lot 067M4182, Sigma) for 48 hours. One and a half milligrams per milliliter MTT (catalog no. M6494, Invitrogen) in a 1:1 ratio was added to cell culture media. After a 2-hour incubation at 37°C, media was removed and 70 μl of isopropanol was added. Optical densities at 570 nm were measured using POLARstar Omega plate reader. Readouts were normalized and IC50 values were calculated using a nonlinear regression model in Graphpad prism (v8.3.0). Each biological replicate (at least 3) was performed in 4 technical replicates to calculate the average IC50 value. To measure apoptosis, the Guava NexinReagent (Luminex Corp.) was used following manufacturer's instructions. Fluorescence staining was measured with an automated 96-well Guava easyCyte Flow Cytometer (Luminex Corp.).
Cells were harvested and lyzed using RIPA lysis and extraction buffer (Thermo Scientific) following manufacturer's protocol. Twenty to 30 μg of total protein lysates was loaded on Mini-PROTEAN TGX precast gels (Bio-Rad). Separated proteins were transferred to a polyvinylidene difluoride (PVDF) membrane using Trans-Blot Turbo Transfer System (Bio-Rad) followed by incubation with primary and horseradish peroxidase (HRP)–conjugated secondary antibodies [anti-mouse, catalog no. […]

## C[C@H](NP(=O)(OC[C@@H]1C[C@@H](O)[C@H](n2cnc3c(N)ncnc32)O1)Oc1ccccc1)C(=O)OCc1ccccc1 (stereo partly drawn) [NUC-7738, 3′-deoxyadenosine-5′-O-phenyl-(benzyloxy-L-alaninyl)-phosphate]
  apoptotic cell death, cleaved PARP-1: induced apoptotic cell death
